Reference: article PMC5784920, “Inhibition of α-glucosidase, α-amylase, and aldose reductase by potato polyphenolic compounds” (PLoS ONE, 2018)

Experiments:
α-glucosidase = system: T1, α-glucosidase; assay: p-nitrophenol release at […] nm, Lineweaver-Burk; format: biochemical; conditions: pH 6.5 phosphate; no inhibitor
T1 construct: gene MAL12; introduction speaks of intestinal enzyme

O=C[C@H](O)CO = assay: purified protein; conditions: NADPH cofactor; no inhibitor; varied substrate taken as glyceraldehyde (D/L not told)

Compound	Km (α-glucosidase) [mM]	Km (O=C[C@H](O)CO) [mM]
O=[N+]([O-])c1ccc(O[C@H]2O[C@H](CO)[C@@H](O)[C@H](O)[C@H]2O)cc1 [PNPG]	4.44	–
aldose reductase (AR) (Homo sapiens)	–	3.03
